From patent publication US4146631A, “Benzamide derivatives” (May & Baker Limited, priority 1976, dated 1979) come the findings set out here.

The subject of series [1] is passive cutaneous anaphylactic (PCA) reaction. In words: Passive cutaneous anaphylactic (PCA) reaction, reagin-allergen combination, in rats. The format is in vivo. To be noted: Rattus norvegicus; for ED100: intravenous, just before injection of allergen, read-out: ED100 (intravenous dose which produces 100% inhibition of the PCA reaction); for inhibition in vivo at 100 mg/kg: oral dose of 100 mg/kg; for inhibition in vivo at 100 mg/kg / ED50: thirty minutes before intravenous allergen; for ED50: oral, read-out: ED50 (oral dose which produces 50% inhibition of the PCA reaction). From the text: In pharmacological tests the benzamide derivatives of general formula I suppress the passive cutaneous anaphylactic (PCA) reaction resulting from combination of tissue-fixed reaginic antibodies with the appropriate antigenic material (termed reagin-allergen combination) and carried out in an essentially similar manner to that described by Ogilvie [Nature (Lond.), (1964), 204, 91-92; Immunology, (1967), 12, 112-131]. In the method used to test these compounds sera were obtained from rats which had been infected with larvae of the nematode parasite Nippostrongylus brasiliensis; as a result of the parasitic infestation reaginic antibodies are elaborated in the host mammal and are found in sera removed from such animals. Other, non-infected, rats received intradermal injections of appropriate dilutions of such sera and were then given the allergenic material along with Evans' blue dye intravenously forty-eight hours later.
The allergenic material consisted of supernatant fluid after centrifugation of homogenates of adult Nippostrongylus brasiliensis worms which had been macerated in Tyrode's solution. The sites of PCA reactions were visualised by the effusion of Evan's blue dye from the circulation into those areas as a result of increased capillary permeability caused by the release of biologically-active substances from cells where reagin-allergen combination had occurred. The new compounds when given intravenously to the rats just before injection of allergen, or administered orally thirty minutes before intravenous injection of allergen, were able to prevent the development of the PCA reaction, as shown below in Table I, Table II and Table III.

The nature of series [2]: Acute oral toxicity in mice. To be noted: mouse, in vivo, highest dose used 1000 mg/kg, read-out: LD50 (doses lethal to 50% of mice tested). From the text:
Mice were each treated orally with one of the compounds of formula I, and they were observed daily until there had been at least 3 consecutive days without any deaths. The LD50 figures obtained (doses lethal to 50% of mice tested) are shown below in Table IV, expressed in mg/kg animal body weight.
The symbol ">" means "greater than" in this specification. Where the LD50 is said to be ">1000," a more precise estimation of the LD50 was not possible because the numbers of deaths was too small, even at the highest dose used, 1000 mg/kg.

A short description of series [3]: Acute intravenous toxicity in mice. To be noted: mouse, in vivo. From the text:
Mice were each treated intravenously with an aqueous solution of the triethanolamine salt or sodium salt of one of the compounds of formula I, and they were observed until there had been at least 3 consecutive days without any deaths. The LD50 figures obtained (doses lethal to 50% of mice tested) are shown below in Table V, expressed in mg/kg animal body weight. In Table V, "Na" means that the sodium salt was used and "T" means that the triethanolamine salt was used.
The aqueous solutions were prepared as follows:
A mixture of the test compound and water was treated gradually with triethanolamine until complete solution occurred. The solution was then diluted with water to a concentration of test compound of either 1% w/v or 2% w/v.
The test compound was dissolved in aqueous sodium hydroxide (1N) and the solution was brought to pH 8 by treatment with hydrochloric acid. The solution was then diluted with water to a concentration of test compound of 2% w/v.
Various volumes of these solutions were then administered to the mice.

The mark [4] stands for this setting: triethanolamine salt (T), 2% w/v test solution.
[5] abbreviates: triethanolamine salt (T), 1% w/v solution for lower doses, 2% w/v for higher doses.
Where [6] appears, read: sodium salt (Na), 2% w/v test solution.

SMILES strings stand for the structures.

As usually defined, the inhibition in vivo is the share of the control response that was lost under treatment. In general, ED50 refers to the dose that gives a 50% effect, or the effect in half of the subjects. Usually LD50 stands for the dose expected to kill half of the subjects tested. In the case of `Cc1cccc(C(=O)Nc2nnn[nH]2)c1O` [AH, 2-hydroxy-3-methyl-N-(tetrazol-5-yl)benzamide], in series [1], the ED100 was 0.5 mg/kg, the inhibition in vivo at 100 mg/kg is 82% and the ED50 worked out at 10 mg/kg. For the same compound, in series [2], the LD50 is over 1000 mg/kg. Besides, the LD50 in series [3] (setting [4]) worked out at 770 mg/kg.
On the same counts, the results for `O=C(Nc1nnn[nH]1)c1cc([N+](=O)[O-])cc([N+](=O)[O-])c1O` [Compound AE, 2-hydroxy-3,5-dinitro-N-(tetrazol-5-yl)benzamide] are 0.05 mg/kg, 80%, 0.1 to 0.45 mg/kg, over 1000 mg/kg and 490 mg/kg.
As for `O=C(Nc1nnn[nH]1)c1cc(F)ccc1O` [Compound BH, 5-fluoro-2-hydroxy-N-(tetrazol-5-yl)benzamide], in series [1], the ED100 amounted to 1 mg/kg, the inhibition in vivo at 100 mg/kg was found to be 94% and the ED50 came out at 16 mg/kg. Further, the LD50 in series [2] was over 1000 mg/kg. Also, the LD50 in series [3] (setting [5]) came to 500 mg/kg.
In the case of `O=C(Nc1nnn[nH]1)c1cc(Cl)ccc1O` [Compound AD, 5-chloro-2-hydroxy-N-(tetrazol-5-yl)benzamide], in series [1], the ED100 was 1 mg/kg, the inhibition in vivo at 100 mg/kg is 94% and the ED50 stood at 13 mg/kg. Besides, the LD50 in series [2] was over 1000 mg/kg. For the same compound, in series [3] (setting [6]), the LD50 is 480 mg/kg.
As to `CC(=O)c1cc(C)cc(C(=O)Nc2nnn[nH]2)c1O` [AR, 3-acetyl-2-hydroxy-5-methyl-N-(tetrazol-5-yl)benzamide], in series [1], the ED100 was determined as 0.1 mg/kg, the inhibition in vivo at 100 mg/kg worked out at 42% and the ED50 amounted to 0.75 mg/kg. For the same compound, the 50% lethal dose (LD50) in series [2] was over 1000 mg/kg. In addition, in series [3] (setting [4]), the LD50 is 430 mg/kg.
Turning to `COc1ccc(O)c(C(=O)Nc2nnn[nH]2)c1` [AP, 2-hydroxy-5-methoxy-N-(tetrazol-5-yl)benzamide], in series [1], the ED100 was determined as 0.5 mg/kg, the inhibition in vivo at 100 mg/kg is 75% and the ED50 worked out at 100 mg/kg. Also, in series [2], the LD50 is over 1000 mg/kg. For the same compound, the LD50 in series [3] (setting [6]) worked out at 950 mg/kg.
For `O=C(Nc1nnn[nH]1)c1cc([N+](=O)[O-])ccc1O` [AO, 2-hydroxy-5-nitro-N-(tetrazol-5-yl)benzamide], in series [1], the ED100 is 0.2 mg/kg, the inhibition in vivo at 100 mg/kg amounted to 48% and the median effective dose (ED50) stood at 100 mg/kg. In addition, the LD50 in series [2] was over 1000 mg/kg. The LD50 in series [3] (setting [4]) is 870 mg/kg.
On the same counts, the results for `COc1cccc(C(=O)Nc2nnn[nH]2)c1O` [Compound BE, 2-hydroxy-3-methoxy-N-(tetrazol-5-yl)benzamide] are 0.2 mg/kg, 62%, 18 mg/kg, over 1000 mg/kg and 580 mg/kg.
On the same counts, the results for `CCOc1cccc(C(=O)Nc2nnn[nH]2)c1O` [AS, 3-ethoxy-2-hydroxy-N-(tetrazol-5-yl)benzamide] are 1 mg/kg, 76%, 10 mg/kg, over 1000 mg/kg and 560 mg/kg.
As for `CCC(=O)c1cc(C)cc(C(=O)Nc2nnn[nH]2)c1O` [CE, 2-hydroxy-5-methyl-3-propionyl-N-(tetrazol-5-yl)benzamide], in series [1], the ED100 is 0.05 mg/kg, the inhibition in vivo at 100 mg/kg is 99% and the ED50 turned out to be 0.4 mg/kg. For the same compound, the LD50 in series [2] was over 1000 mg/kg. Also, the LD50 in series [3] (setting [4]) came to 270 mg/kg.
On the same counts, the results for `N#Cc1cccc(C(=O)Nc2nnn[nH]2)c1O` [CJ, 3-cyano-2-hydroxy-N-(tetrazol-5-yl)benzamide] are 0.5 mg/kg, 50%, 37 mg/kg, over 1000 mg/kg and over 1000 mg/kg.
With `CC(=O)c1cc([N+](=O)[O-])cc(C(=O)Nc2nnn[nH]2)c1O` [Compound CS, 3acetyl-2-hydroxy-5-nitro-N-(tetrazol-5-yl)benzamide], in series [1], the ED100 came out at 0.1 mg/kg and the inhibition in vivo at 100 mg/kg worked out at 54%. Also, the median lethal dose (LD50) in series [2] is over 1000 mg/kg. The LD50 in series [3] (setting [4]) turned out to be 780 mg/kg.
Consider `CC(=O)c1c(C)c(C)cc(C(=O)Nc2nnn[nH]2)c1O` [BX, 3-acetyl-2-hydroxy-4,5-dimethyl-N-(tetrazol-5-yl)benzamide], for which the ED100 in series [1] worked out at 20 mg/kg. The LD50 was over 1000 mg/kg in series [2] and 870 mg/kg in series [3] (setting [4]).
On to `CCCOc1cccc(C(=O)Nc2nnn[nH]2)c1O` [Compound AN, 2-hydroxy-3-propoxy-N-(tetrazol-5-yl)benzamide], for which, in series [1], the ED100 amounted to 0.5 mg/kg, the inhibition in vivo at 100 mg/kg amounted to 87% and the ED50 turned out to be 40 mg/kg. The LD50 in series [2] was over 1000 mg/kg. Also, the LD50 in series [3] (setting [4]) stood at 480 mg/kg.
As to `Cc1ccc(O)c(C(=O)Nc2nnn[nH]2)c1` [AG, 2-hydroxy-5-methyl-N-(tetrazol-5-yl)benzamide], in series [1], the ED100 turned out to be 1 mg/kg. Also, the LD50 in series [2] was over 1000 mg/kg; in series [3] (setting [6]), 670 mg/kg.
Turning to `Cc1cc(C(=O)Nc2nnn[nH]2)c(O)c(C(=O)c2ccccc2)c1` [CR, 3-benzoyl-2-hydroxy-5-methyl-N-(tetrazol-5-yl)benzamide], in series [1], the ED100 came to 1 mg/kg. Besides, the inhibition in vivo at 100 mg/kg in series [1] stood at 22%. For the same compound, the median lethal dose (LD50) in series [2] was over 1000 mg/kg; in series [3] (setting [4]), 350 mg/kg.
On the same counts, the results for `CC(=O)Nc1ccc(C(=O)Nc2nnn[nH]2)c(O)c1` [BB, 4-acetylamino-2-hydroxy-N-(tetrazol-5-yl)benzamide] are 1 mg/kg, 26%, over 1000 mg/kg and 645 mg/kg.
In the case of `CC(=O)c1cc(Cl)cc(C(=O)Nc2nnn[nH]2)c1O` [Compound AU, 3-acetyl-5-chloro-2-hydroxy-N-(tetrazol-5-yl)benzamide], in series [1], the ED100 came to 2 mg/kg, the inhibition in vivo at 100 mg/kg was determined as 71% and the ED50 was found to be 1.8 mg/kg. Further, in series [2], the LD50 was over 1000 mg/kg. The LD50 in series [3] (setting [4]) amounted to 245 mg/kg.
`CCCC(=O)c1cc(CC)cc(C(=O)Nc2nnn[nH]2)c1O` [Compound CG, 3-butyryl-5-ethyl-2-hydroxy-N-(tetrazol-5-yl)benzamide]: in series [1], the ED100 was 0.1 mg/kg, the inhibition in vivo at 100 mg/kg is 55% and the 50% effective dose (ED50) turned out to be 2.2 mg/kg. In addition, in series [2], the LD50 was over 1000 mg/kg. Besides, the LD50 in series [3] (setting [5]) worked out at 270 mg/kg.
For `CCc1cc(C(C)=O)c(O)c(C(=O)Nc2nnn[nH]2)c1` [BW, 3-acetyl-5-ethyl-2-hydroxy-N-(tetrazol-5-yl)benzamide], in series [1], the ED100 was 0.1 mg/kg, the inhibition in vivo at 100 mg/kg turned out to be 51% and the ED50 is 0.1 mg/kg. The LD50 in series [2] is over 1000 mg/kg. Besides, the LD50 in series [3] (setting [6]) came out at 320 mg/kg.
Regarding `CCC(=O)c1cc(CC)cc(C(=O)Nc2nnn[nH]2)c1O` [CF, 5-ethyl-2-hydroxy-3-propionyl-N-(tetrazol-5-yl)benzamide], in series [1], the ED100 was 0.05 mg/kg, the inhibition in vivo at 100 mg/kg was 41% and the ED50 came to 0.27 mg/kg. In series [2], the LD50 was over 1000 mg/kg. Also, the LD50 in series [3] (setting [4]) was 280 mg/kg.
For the compound `CCCc1cc(C(C)=O)c(O)c(C(=O)Nc2nnn[nH]2)c1` [Compound CD, 3-acetyl-2-hydroxy-5-propyl-N-(tetrazol-5-yl)benzamide], in series [1], the ED100 stood at 0.1 mg/kg and the inhibition in vivo at 100 mg/kg was determined as 64%. The LD50 in series [2] was over 1000 mg/kg. The LD50 in series [3] (setting [4]) stood at 250 mg/kg.
